US9049865B2, “Use of fungicidal active substances for controlling mycoses on plants of the palm family” (Bayer Intellectual Property GmbH, priority 2010, dated 2015)
In brackets after ≈: the same amount, converted by molar mass. Several values for one entry are separate records, joined by “and”; a condition that tells them apart may be missing. Equal values may be shown once. Read-outs that look alike come from different tables or passages of the source.

System: Ganoderma boninense
Experiment: Microtiter plate growth test of Ganoderma boninense mycelium in potato-dextrose broth, absorption by photometer
Format: cell-based
Settings: for EC50: Ganoderma boninense; for efficacy in controlling basal stem rot (BSR) disease, in words: verbal assessment of the EC50 data
Protocol: • 1. Culturing of the isolates on potato-dextrose agar (PDA) • 2. Preparation of a liquid potato-dextrose broth (PDB) as inoculum • For the development of the mycelium, 10 small pieces of the mycelium were transferred into 200 ml of the liquid potato-dextrose broth (PDB) and cultured for 7 days in a greenhouse cabinet at 26° C. • The mycelium was isolated, transferred into 200 ml of fresh liquid potato-dextrose broth supplemented with 25 mg/l enrofloxacin and comminuted using a homogenizer (5 seconds, Ultra Turrax). Thereafter this mycelial suspension was adjusted to two mycelial densities: • Inoculum A: “High mycelial density” • Homogenized mycelial suspension made up to 400 ml with PDB+enrofloxacin • Inoculum B: “Low mycelial density” • 100 ml of inoculum A made up to 400 ml with PDB+enrofloxacin • 3. Microtiter plate test: • Concentration range from 0.0-0.0064-0.032-0.16-4-20 to 100 ppm for each fungicide (active component) • Fungicide and inoculum were distributed using an automatic dispenser • 4. Evaluation (growth determination): • This is carried out every 2 days (1st evaluation after 4 days) by measuring the absorption over 13 days, using a photometer. II. Results
EC50 & (MEC50): Fungicide concentration at which the fungal growth is reduced by 50%: […]

[1] = G. boninense, high mycelial density, after 6 days, single determinations
[2] = G. boninense, high mycelial density, after 13 days, single determinations
[3] = 144 h, G. boninense, high mycelial density, after 6 days, single determinations, read-out: EC50 data
[4] = 144 h, G. boninense, high mycelial density, after 6 days, read-out: MEC50s (mean EC50 data)
[5] = 144 h, G. boninense, low mycelial density, after 6 days, read-out: MEC50s (mean EC50 data)
[6] = 312 h, G. boninense, high mycelial density, after 13 days, single determinations, read-out: EC50 data
[7] = 312 h, G. boninense, high mycelial density, after 13 days, read-out: MEC50s (mean EC50 data)
[8] = 312 h, G. boninense, low mycelial density, after 13 days, read-out: MEC50s (mean EC50 data)
[9] = G. boninense, low mycelial density, after 13 days, single determinations
[10] = 312 h, G. boninense, low mycelial density, after 13 days, single determinations, read-out: EC50 data
[11] = G. boninense, low mycelial density, after 6 days, single determinations
[12] = 144 h, G. boninense, low mycelial density, after 6 days, single determinations, read-out: EC50 data

SMILES | EC50 data [1] | EC50 data [2] | EC50 [3] [µg/mL] | EC50 [4] [µg/mL] | EC50 [5] [µg/mL] | EC50 [6] [µg/mL] | EC50 [7] [µg/mL] | EC50 [8] [µg/mL] | efficacy in controlling basal stem rot (BSR) disease, in words | EC50 data [9] | EC50 [10] [µg/mL] | EC50 data [11] | EC50 [12] [µg/mL] | EC50 (144 h, read-out: EC50 data, G. boninense, low mycelial density, after 6 days, single determinations) [µg/mL] | EC50 (144 h, read-out: MEC50s (mean EC50 data), G. boninense, low mycelial density, after 6 days) [µg/mL] | EC50 (312 h, read-out: EC50 data, G. boninense, low mycelial density, after 13 days, single determinations) [µg/mL] | EC50 (312 h, read-out: MEC50s (mean EC50 data), G. boninense, low mycelial density, after 13 days) [µg/mL]
OC(Cc1ccccc1Cl)(Cn1nc[nH]c1=S)C1(Cl)CC1 (stereo not drawn) [Prothioconazole] | 0.0069 µg/mL and 0.0087 µg/mL and 0.0117 µg/mL and 0.0073 µg/mL | 0.0084 µg/mL and 0.0068 µg/mL | 0.0064 (≈ 0.0186 µM) | 0.008 (≈ 0.0232 µM) | 0.012 (≈ 0.0349 µM) | 0.0064 (≈ 0.0186 µM) | 0.009 (≈ 0.0261 µM) | 0.014 (≈ 0.0407 µM) | best activity |  |  |  |  |  |  |  | 
CC(C)(C)C(O)C(Oc1ccc(-c2ccccc2)cc1)n1cncn1 (stereo not drawn) [Bitertanol] | 0.0518 µg/mL and 0.0614 µg/mL and 0.058 µg/mL and 0.0542 µg/mL and 0.0679 µg/mL |  | 0.0801 (≈ 0.237 µM) | 0.062 (≈ 0.184 µM) | 0.061 (≈ 0.181 µM) |  | 0.054 (≈ 0.16 µM) | 0.121 (≈ 0.359 µM) | similarly effective | 0.1355 µg/mL and 0.1360 µg/mL and 0.1146 µg/mL and 0.1235 µg/mL and 0.1014 µg/mL | 0.118 (≈ 0.35 µM) |  |  |  |  |  | 
O=c1c2cc(F)ccc2nc(-n2cncn2)n1-c1ccc(Cl)cc1Cl [Fluquinconazole] |  | 0.0450 µg/mL and 0.0443 µg/mL and 0.0458 µg/mL and 0.0352 µg/mL and 0.0386 µg/mL |  | 0.034 (≈ 0.0904 µM) | 0.023 (≈ 0.0611 µM) | 0.0393 (≈ 0.104 µM) | 0.041 (≈ 0.109 µM) | 0.066 (≈ 0.175 µM) |  | 0.0532 µg/mL and 0.0915 µg/mL and 0.0656 µg/mL and 0.0577 µg/mL and 0.075 µg/mL | 0.0591 (≈ 0.157 µM) | 0.0178 µg/mL and 0.0228 µg/mL and 0.0239 µg/mL and 0.0224 µg/mL and 0.022 µg/mL | 0.0308 (≈ 0.0819 µM) |  |  |  | 
CC(C)(C)C(O)C(Oc1ccc(Cl)cc1)n1cncn1 (stereo not drawn) [Triadimenol] | 0.0446 µg/mL and 0.0475 µg/mL and 0.0712 µg/mL and 0.0434 µg/mL and 0.0767 µg/mL |  | 0.0386 (≈ 0.131 µM) | 0.052 (≈ 0.176 µM) | 0.093 (≈ 0.314 µM) |  | 0.06 (≈ 0.203 µM) | 0.098 (≈ 0.331 µM) | similarly effective | 0.0963 µg/mL and 0.0723 µg/mL and 0.1064 µg/mL and 0.1074 µg/mL | 0.103 (≈ 0.349 µM) | 0.08 µg/mL and 0.1062 µg/mL and 0.1077 µg/mL and 0.1076 µg/mL and 0.0638 µg/mL | 0.106 (≈ 0.359 µM) |  |  |  | 
Cn1cc(C(=O)Nc2ccc(F)cc2-c2ccc(Cl)c(Cl)c2)c(C(F)F)n1 [Bixafen, N-(3′,4′-dichloro-5-fluoro-1,1′-biphenyl-2-yl)-3-(difluoromethyl)-1-methyl-1H-pyrazole-4-carboxamide] |  |  |  | 0.07 (≈ 0.169 µM) | 0.027 (≈ 0.0652 µM) |  | 0.096 (≈ 0.232 µM) | 0.096 (≈ 0.232 µM) |  |  |  |  |  |  |  |  | 
CO/N=C(/C1=NOCCO1)c1ccccc1Oc1ncnc(Oc2ccccc2Cl)c1F [Fluoxastrobin] |  |  |  |  | 0.036 (≈ 0.0785 µM) |  |  | 0.158 (≈ 0.344 µM) | less effective |  |  |  |  |  |  |  | 
CCCN(CCOc1c(Cl)cc(Cl)cc1Cl)C(=O)n1ccnc1 [Prochloraz] |  |  |  |  |  |  |  |  |  | 0.6978 µg/mL and 1.0994 µg/mL and 0.7737 µg/mL and 0.8261 µg/mL and 1.1128 µg/mL |  | 0.3566 µg/mL and 0.5803 µg/mL and 0.5515 µg/mL and 0.6018 µg/mL and 0.5704 µg/mL |  | 0.497 (≈ 1.32 µM) | 0.519 (≈ 1.38 µM) | 0.94 (≈ 2.5 µM) | 0.895 (≈ 2.38 µM)
CC(C)(C)C(O)(CCc1ccc(Cl)cc1)Cn1cncn1 (stereo not drawn) [Tebuconazole] |  |  | 0.0064 (≈ 0.0208 µM) | 0.006 (≈ 0.0195 µM) | 0.006 (≈ 0.0195 µM) |  | 0.011 (≈ 0.0357 µM) | 0.007 (≈ 0.0227 µM) | best activity | 0.0065 µg/mL and 0.0067 µg/mL and 0.0072 µg/mL | 0.0086 (≈ 0.0279 µM) |  | 0.0064 (≈ 0.0208 µM) |  |  |  | 
CON=C(C(=O)OC)c1ccccc1CON=C(C)c1cccc(C(F)(F)F)c1 [Trifloxystrobin] |  | 0.0119 µg/mL and 0.0081 µg/mL and 0.0115 µg/mL | 0.0064 (≈ 0.0157 µM) | 0.006 (≈ 0.0147 µM) | 0.006 (≈ 0.0147 µM) | 0.0064 (≈ 0.0157 µM) | 0.01 (≈ 0.0245 µM) | 0.02 (≈ 0.049 µM) | outstanding efficacy |  |  |  | 0.0064 (≈ 0.0157 µM) |  |  |  | 
Cc1nn(C)c(F)c1C(=O)Nc1ccccc1C(C)CC(C)C (stereo not drawn) [Penflufen, N-[2-(1,3-dimethylbutyl)phenyl]-5-fluoro-1,3-dimethyl-1H-pyrazole-4-carboxamide] | 0.0098 µg/mL and 0.0087 µg/mL |  | 0.0076 (≈ 0.0239 µM) | 0.008 (≈ 0.0252 µM) | 0.006 (≈ 0.0189 µM) |  | 0.022 (≈ 0.0693 µM) | 0.015 (≈ 0.0473 µM) |  |  |  | 0.0065 µg/mL (≈ 0.0205 µM) | 0.0064 (≈ 0.0202 µM) |  |  |  | 
